Measurements from US20260265179A1, “PHOTOSWITCHABLE COMPOUNDS AND AFFINITY LIGANDS, AND THEIR USE FOR THE OPTICAL CONTROL OF AFFINITY MATRICES” (AFC Innovations GmbH, priority 2023, published 2026).
Values belong to the molecule of their own block, whether it stands above or below them.

Legend:
[1] = Stability of photoswitch in presence of TCEP during derivatization reaction; format: physicochemical; details: 1 mM TCEP, pH 8.5, 35° C., 16 h
Description: Freshly degassed and reduced SpA #2 (650 μM, 1.3 μmol, 10 mg, 1 eq) in a total volume of 2 ml was diluted with the same degassed buffer (100 mM sodium borate, 150 mM NaCl, 1 mM TCEP, pH 8.5) to a final protein concentration of 50 μM. This solution was stirred under nitrogen atmosphere while 2.2 mg PS2 (2.6 μmol, 2 eq) dissolved in 0.26 ml DMF, which has been illuminated with red light (635 nm) for 5 min, was added in one portion. The reaction was illuminated with red light and stirred for 16 h at 35° C. […] The derivatization reaction results in a […] amount of intramolecular cross-linked species. Further purification steps by anion exchange chromatography and SEC were performed to remove small amounts of cross-linked species and higher oligomers.

[2] = Thermal cis to trans relaxation of PS4, HPLC; format: physicochemical; details: 25° C., kept in the dark after yellow light (593 nm) for 2 min
[3] = test system: immunoglobulin G (IgG) mixture (Cutaquig); assay: Light-controlled affinity purification of IgG from polyclonal antibody mixture Cutaquig; format: binding; details: sample application and washing under red light, elution under blue light; immobilized on NHS-Agarose
Description: For the functional assessment of the light-switchable affinity matrices, these were encased within a transparent acrylic glass housing, featuring a thickness of 2 mm, to achieve a settled bed volume (SBV) of 250 μl. A LED array equipped with lenses capable of alternating between peak wavelengths of 635 nm (red) and 465 nm (blue) was positioned adjacent to the housing. This configuration ensured thorough and efficient illumination of the entire resin material contained within. The performance of the light-switchable affinity matrix was tested using the polyclonal antibody mixture Cutaquig® (Octapharma) as a substrate.
Initially, the column was equilibrated with 3 mL of running buffer (50 mM TrisHCl, pH 7.6, 150 mM NaCl) using an FPLC system (AKTA Pure 25, Cytiva Life Science). The affinity matrix was then loaded with sample to achieve a 60% breakthrough. Unbound proteins and impurities were removed by washing the column with 7.5 mL of the same running buffer. Both, the sample application and washing steps were performed under red visible light illumination at 635 nm to ensure binding conditions. Following this, the elution of bound immunoglobulin G (IgG) was initiated by switching the illumination to blue visible light at 465 nm, which induces the release of the bound IgG. The resin was regenerated by again illuminating with red visible light at 635 nm, preparing it for subsequent use. […]

stability in the presence of TCEP [1]: stable
Molecule: COc1cc(-c2ccc(NC(=O)CCl)c(C(=O)NCC(=O)O)c2)cc(OC)c1/N=N/c1c(OC)cc(-c2ccc(NC(=O)CCl)c(C(=O)NCC(=O)O)c2)cc1OC [PS2, 4′-(2-(4-(2-chloroacetamido)-3′,5′-dimethoxybiphenyl-3-ylcarboxyamido)acetic acid)-4′-(2-(4-(2-chloroacetamido)-3′,5′-dimethoxybiphenyl-3-ylcarboxyamido)acetic acid)diazene]

t1/2 (cis→trans) [2]: ≥ 24 h
Molecule: O=C(O)CNC(=O)c1cc(-c2cc(F)c(/N=N/c3c(F)cc(-c4ccc(NC(=O)CCl)c(C(=O)NCC(=O)O)c4)cc3F)c(F)c2)ccc1NC(=O)CCl [PS4, 4′-(2-(4-(2-chloroacetamido)-3′,5′-difluorobiphenyl-3-ylcarboxyamido)acetic acid)-4′-(2-(4-(2-chloroacetamido)-3′,5′-difluorobiphenyl-3-ylcarboxyamido)acetic acid)diazene]

Second part, the molecule before the results:

B1: Ps2-Ppl #1: Protein L variant PpL #1 (SEQ ID NO. 19) modified with photoswitch PS2 (conjugate)
chain: MATKASKGGGGASEEVTIRVNLIFADGSTQCAEFRGTFEEATAEAYAYADLLARENGEYTACLEDGGNTINIRFAGEDEDEDED
modifications: photoswitch PS2
binding and light-controlled elution of IgG (chromatogram) [3]: elution of specifically bound IgG molecules is initiated by blue light illumination

B2: Ps2-SpG #1: Protein G variant SpG #1 (SEQ ID NO. 18) modified with photoswitch PS2 (conjugate)
chain: MATKASKGGGGTTYRLILNGVTLSGETTTEACDAATAERVFRQYANDYGVDGEWTYDCATRTFTVTEGEDEDEDED
modifications: photoswitch PS2
binding and light-controlled elution of IgG (chromatogram) [3]: elution of specifically bound IgG molecules is initiated by blue light illumination
